Results taken from ChEMBL document CHEMBL1909046, “DrugMatrix in vitro pharmacology data”.

Experiments:
[1] = DRUGMATRIX: Sodium/nucleoside co-transporter radioligand binding (ligand: nitrobenzylthioinosine); format: cell membranes, Cavia porcellus, Dunkin-Hartley, Cerebral cortex, Membrane; conditions: Not Active = under 50% inhibition at 10 µM
[2] = DRUGMATRIX: Phosphodiesterase PDE3 enzyme inhibition (substrate: [3H]cAMP + cAMP); format: tissue-based, Homo sapiens; conditions: platelet, Not Active = under 50% inhibition at 10 µM
D(3) dopamine receptor = D(3) dopamine receptor (Homo sapiens, UniProt P35462); experiment: DRUGMATRIX: Dopamine D3 radioligand binding (ligand: [3H] Spiperone); format: cell membranes, CHO, Membrane; conditions: cho
Chain of D(3) dopamine receptor (P35462 whole entry): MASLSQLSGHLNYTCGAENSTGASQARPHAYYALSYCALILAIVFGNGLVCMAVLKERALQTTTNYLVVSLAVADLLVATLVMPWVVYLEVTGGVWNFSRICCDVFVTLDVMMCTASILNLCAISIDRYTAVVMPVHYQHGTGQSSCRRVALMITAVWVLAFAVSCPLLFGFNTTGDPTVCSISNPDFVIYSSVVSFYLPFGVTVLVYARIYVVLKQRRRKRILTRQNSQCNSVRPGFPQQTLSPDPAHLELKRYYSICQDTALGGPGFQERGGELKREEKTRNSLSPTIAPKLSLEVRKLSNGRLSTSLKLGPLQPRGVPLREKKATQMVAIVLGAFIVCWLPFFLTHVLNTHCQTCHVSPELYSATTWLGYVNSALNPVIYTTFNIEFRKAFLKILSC

[3] = DRUGMATRIX: Leukotriene, BLT (LTB4) radioligand binding (ligand: [3H]LTB4); format: cell membranes, Membrane; conditions: u-937; Not Active = under 50% inhibition at 10 µM
[4] = target: cGMP-specific 3',5'-cyclic phosphodiesterase (Homo sapiens, UniProt O76074); experiment: DRUGMATRIX: Phosphodiesterase PDE5 enzyme inhibition (substrate: [3H]cGMP + cGMP); format: tissue-based; conditions: platelet; Not Active = under 50% inhibition at 10 µM
Substance-P receptor = Substance-P receptor (Homo sapiens, UniProt P25103); format: cell membranes, Membrane; conditions: cho; note: in other assays of this panel Not Active means under 50% inhibition at 10 µM
Chain of Substance-P receptor (P25103 whole entry): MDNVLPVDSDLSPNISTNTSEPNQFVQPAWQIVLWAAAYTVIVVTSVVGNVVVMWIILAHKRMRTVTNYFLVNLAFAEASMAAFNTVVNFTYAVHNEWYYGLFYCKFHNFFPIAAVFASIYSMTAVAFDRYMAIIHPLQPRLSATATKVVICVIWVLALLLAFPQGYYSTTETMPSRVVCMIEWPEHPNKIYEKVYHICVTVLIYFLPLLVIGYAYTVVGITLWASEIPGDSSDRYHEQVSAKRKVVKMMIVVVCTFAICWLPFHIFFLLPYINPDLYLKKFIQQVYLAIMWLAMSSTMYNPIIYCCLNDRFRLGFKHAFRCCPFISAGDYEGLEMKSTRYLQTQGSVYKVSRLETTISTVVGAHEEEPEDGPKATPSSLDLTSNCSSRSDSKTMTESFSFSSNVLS

[5] = target: Sigma non-opioid intracellular receptor 1 (Homo sapiens, UniProt Q99720); experiment: DRUGMATRIX: Sigma1 radioligand binding (ligand: [3H] Haloperidol); format: cell membranes, Jurkat, Membrane; conditions: jurkat; Not Active = under 50% inhibition at 10 µM
Chain of Sigma non-opioid intracellular receptor 1 (Q99720 whole entry): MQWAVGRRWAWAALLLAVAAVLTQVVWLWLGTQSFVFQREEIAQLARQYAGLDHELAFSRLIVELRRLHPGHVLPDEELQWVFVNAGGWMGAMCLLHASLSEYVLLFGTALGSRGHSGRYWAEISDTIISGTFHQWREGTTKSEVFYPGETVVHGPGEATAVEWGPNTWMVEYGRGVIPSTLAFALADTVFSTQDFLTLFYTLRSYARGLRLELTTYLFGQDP

| Compound | IC50 [1] | Ki [1] | IC50 [2] | Ki [2] | IC50 (D(3) dopamine receptor) | IC50 [3] | Ki [3] | IC50 [4] | IC50 (Substance-P receptor) | IC50 [5] | IC50 ([2]; read-out: IC50) | Ki (D(3) dopamine receptor) | Ki [4] | Ki (Substance-P receptor) | Ki [5] |
| --- | --- | --- | --- | --- | --- | --- | --- | --- | --- | --- | --- | --- | --- | --- | --- |
| Cc1cccc(Nc2ccccc2C(=O)O)c1C [MEFENAMIC ACID] | Not Active | Not Active | Not Active | Not Active | Not Active | Not Active | Not Active | Not Active | Not Active | Not Active |  |  |  |  |  |
| NC[C@@H]1O[C@H](O[C@H]2[C@@H](O)[C@H](O[C@@H]3[C@@H](O)[C@H](N)C[C@H](N)[C@H]3O[C@H]3O[C@H](CN)[C@@H](O)[C@H](O)[C@H]3N)O[C@@H]2CO)[C@H](N)[C@@H](O)[C@@H]1O [FRAMYCETIN] | Not Active | Not Active | Not Active | Not Active | Not Active | Not Active | Not Active | Not Active | Not Active | Not Active |  |  |  |  |  |
| O=C(O)c1cccnc1 [NIACIN] | Not Active | Not Active | Not Active | Not Active | Not Active | Not Active | Not Active | Not Active | Not Active | Not Active |  |  |  |  |  |
| CC[C@]1(O)CC[C@H]2[C@@H]3CCC4=CCCC[C@@H]4[C@H]3CC[C@@]21C | Not Active | Not Active | Not Active | Not Active | Not Active | Not Active | Not Active | Not Active | Not Active | Not Active |  |  |  |  |  |
| COc1cc(CNC(=O)CCCC/C=C/C(C)C)ccc1O [CAPSAICIN] | Not Active | Not Active | Not Active | Not Active | Not Active | Not Active | Not Active | Not Active | Not Active | Not Active |  |  |  |  |  |
| CN(C(=O)CCCOc1ccc2[nH]c(=O)ccc2c1)C1CCCCC1 [CILOSTAMIDE] | Not Active | Not Active |  |  | Not Active | Not Active | Not Active | Not Active | Not Active | Not Active | 55 nM |  |  |  |  |
| CC(=O)OCC(CCn1cnc2cnc(N)nc21)COC(C)=O [FAMCICLOVIR] | Not Active | Not Active | Not Active | Not Active | Not Active | Not Active | Not Active | Not Active | Not Active | Not Active |  |  |  |  |  |
| OCCN1CCN(CCCN2c3ccccc3Sc3ccc(Cl)cc32)CC1 [PERPHENAZINE] | Not Active | Not Active | Not Active | Not Active | Not Active | Not Active | Not Active | Not Active | Not Active | Not Active |  |  |  |  |  |
| COC(=O)c1ccccc1O [METHYL SALICYLATE] | Not Active | Not Active | Not Active | Not Active | Not Active | Not Active | Not Active | Not Active | Not Active | Not Active |  |  |  |  |  |
| C[C@H]([C@](O)(Cn1cncn1)c1ccc(F)cc1F)S(C)(=O)=O [GENACONAZOLE] | Not Active | Not Active | Not Active | Not Active | Not Active | Not Active | Not Active | Not Active | Not Active | Not Active |  |  |  |  |  |
| Clc1cc2c(cc1Cl)Oc1cc(Cl)c(Cl)cc1O2 [2,3,7,8-TETRACHLORODIBENZO-P-DIOXIN] | Not Active | Not Active | Not Active | Not Active | Not Active | Not Active | Not Active | Not Active | Not Active | Not Active |  |  |  |  |  |
| Nn1nnc2ccccc21 | Not Active | Not Active | Not Active | Not Active | Not Active | Not Active | Not Active | Not Active | Not Active | Not Active |  |  |  |  |  |
| COc1ccccc1OCC(O)COC(N)=O (stereo not drawn) [METHOCARBAMOL] | Not Active | Not Active | Not Active | Not Active | Not Active | Not Active | Not Active | Not Active | Not Active | Not Active |  |  |  |  |  |
| CC(C(=O)O)c1ccc(-c2ccccc2)c(F)c1 (stereo not drawn) [FLURBIPROFEN] | Not Active | Not Active | Not Active | Not Active | Not Active | Not Active | Not Active | Not Active | Not Active | Not Active |  |  |  |  |  |
| Cc1c(F)c(N2CCNC(C)C2)cc2c1c(=O)c(C(=O)O)cn2C1CC1 (stereo not drawn) [GREPAFLOXACIN] | Not Active | Not Active | Not Active | Not Active | Not Active | Not Active | Not Active | Not Active | Not Active | Not Active |  |  |  |  |  |
| Oc1ccccc1O [CATECHOL] | Not Active | Not Active | Not Active | Not Active | Not Active | Not Active | Not Active | Not Active | Not Active | Not Active |  |  |  |  |  |
| O=P1(N(CCCl)CCCl)NCCCO1 (stereo not drawn) [CYCLOPHOSPHAMIDE ANHYDROUS] | Not Active | Not Active | Not Active | Not Active | Not Active | Not Active | Not Active | Not Active | Not Active | Not Active |  |  |  |  |  |
| INSULIN HUMAN | Not Active | Not Active | Not Active | Not Active | Not Active | Not Active | Not Active | Not Active | Not Active | Not Active |  | Not Active | Not Active | Not Active | Not Active |
| CS(=O)(=O)OCCCCOS(C)(=O)=O [BUSULFAN] | Not Active | Not Active | Not Active | Not Active | Not Active | Not Active | Not Active | Not Active | Not Active | Not Active |  |  |  |  |  |
| CC(C)(CO)C(O)C(=O)NCCCO (stereo not drawn) [PANTHENOL] | Not Active | Not Active | Not Active | Not Active | Not Active | Not Active | Not Active | Not Active | Not Active | Not Active |  |  |  |  |  |
| O=C(O)c1cc(=O)c2c(OCC(O)COc3cccc4oc(C(=O)O)cc(=O)c34)cccc2o1 [CROMOLYN] | Not Active | Not Active | Not Active | Not Active | Not Active | Not Active | Not Active | Not Active | Not Active | Not Active |  |  |  |  |  |
| O=C(/C=C/c1ccc(O)c(O)c1)OCCc1ccccc1 [CAFFEIC ACID PHENETHYL ESTER] | Not Active | Not Active | Not Active | Not Active | Not Active | Not Active | Not Active | Not Active | Not Active | Not Active |  |  |  |  |  |
